Test results published in US20090311237A1, “Combination therapy using a soluble hyaluronidase and a bisphosphonate” (priority 2008, published 2009).
Where two headings read alike, the source gives them in different places.

Assay: Phase 1 Stage 1 clinical pharmacokinetics of SC ZA co-administered with rHuPH20
Assay type: in vivo, human
Conditions: human, serum, sc; for Tmax: read-out: Tmax
Protocol: A pharmacokinetic study of zoledronic acid (ZA) co-administered with rHuPH20 in human subjects was conducted. The primary objective of the study was to determine the bioavailability of zoledronic acid dosed via subcutaneous (SC) co-administration with human recombinant hyaluronidase PH20 (rHuPH20). […] The patients were administered the prescribed dosage formulations as follows: Cohorts 1-5 were administered a single subcutaneous infusion in a dosage volume of 100 ml at a rate of 3 mL/min. […] The dosing solution is administered via needle or catheter into the SC space of the left anterior thigh (midway between the anterior iliac crest and the cephalad border of the patella). For cohorts 1-5, the dosing solutions were administered by a controlled rate infusion pump at approximately 3 mL/minute. […] The dosing solutions were administered by syringe push bolus injection. […] Serum concentration of ZA was determined using a qualified LC-MS-MS assay after derivatization with diazomethane (Zhu, L S et al. (2006) Rapid Commun. […] The assay range was from 2.0 to 400 ng/mL with a lower limit of quantitation (LLOQ) at 2.0 ng/mL. […] Non-compartmental analysis was used for derivation of primary and secondary pharmacokinetic (PK) parameters. […] Summary statistics (mean, standard deviation, and median) were calculated using JMP or Microsoft Excel.

[1] = 0.0791 mg/kg, Subj 37, ZA 0.0791 mg/kg SC, inf 0.556 hr, PH20 24000 U
[2] = 0.0794 mg/kg, Subj 74, ZA 0.0794 mg/kg SC, inf […], PH20 6000 U
[3] = 0.082 mg/kg, Subj 63, ZA 0.0820 mg/kg SC, inf […], PH20 6000 U
[4] = 0.0877 mg/kg, Subj 46, ZA 0.0877 mg/kg SC, inf 0.276 hr, PH20 12000 U
[5] = ZA 0.25 mg SC + 24000 U rHuPH20, individual subjects
[6] = ZA 0.25 mg SC + 24000 U rHuPH20, mean, n=3
[7] = ZA 0.25 mg SC + 24000 U rHuPH20, median, n=3
[8] = ZA 0.5 mg SC + 24000 U rHuPH20, individual subjects
[9] = ZA 0.5 mg SC + 24000 U rHuPH20, mean, n=3
[10] = ZA 0.5 mg SC + 24000 U rHuPH20, median, n=3
[11] = ZA 1 mg SC + 24000 U rHuPH20, individual subjects

O=P(O)(O)C(O)(Cn1ccnc1)P(=O)(O)O [ZA, 1-hydroxy-2-(1H-imidazol-1-yl)ethylidene-1,1-bisphosphonic acid] showed an AUC(0-t) (0.0791 mg/kg, AUC (0-12 h), Subj 37, ZA 0.0791 mg/kg SC, inf 0.556 hr, PH20 24000 U) of 0.499 µg·h/mL, an AUC(0-t) (0.0791 mg/kg, AUC (0-24 h), Subj 37, ZA 0.0791 mg/kg SC, inf 0.556 hr, PH20 24000 U) of 0.536 µg·h/mL and an AUC(0-t) (0.0791 mg/kg, AUC (0-48 h), Subj 37, ZA 0.0791 mg/kg SC, inf 0.556 hr, PH20 24000 U) of 0.578 µg·h/mL. It also gave a Cmax [1] of 0.131 µg/mL, an AUC(0-inf) (0.0791 mg/kg, Subj 37, ZA 0.0791 mg/kg SC, inf 0.556 hr, PH20 24000 U, read-out: AUC (0-inf)) of 0.62 µg·h/mL and a Tmax [1] of 0.81 h. It also gave an AUC(0-t) (0.0794 mg/kg, AUC (0-12 h), Subj 74, ZA 0.0794 mg/kg SC, inf […], PH20 6000 U) of 0.426 µg·h/mL, an AUC(0-t) (0.0794 mg/kg, AUC (0-24 h), Subj 74, ZA 0.0794 mg/kg SC, inf […], PH20 6000 U) of 0.467 µg·h/mL and an AUC(0-t) (0.0794 mg/kg, AUC (0-48 h), Subj 74, ZA 0.0794 mg/kg SC, inf […], PH20 6000 U) of 0.509 µg·h/mL. It also gave a Cmax [2] of 0.12 µg/mL, an AUC(0-inf) (0.0794 mg/kg, Subj 74, ZA 0.0794 mg/kg SC, inf […], PH20 6000 U, read-out: AUC (0-inf)) of 0.555 µg·h/mL and a Tmax [2] of 0.75 h. For the same molecule, the AUC(0-t) (0.082 mg/kg, AUC (0-12 h), Subj 63, ZA 0.0820 mg/kg SC, inf […], PH20 6000 U) was 0.497 µg·h/mL, the AUC(0-t) (0.082 mg/kg, AUC (0-24 h), Subj 63, ZA 0.0820 mg/kg SC, inf […], PH20 6000 U) was 0.559 µg·h/mL and the AUC(0-t) (0.082 mg/kg, AUC (0-48 h), Subj 63, ZA 0.0820 mg/kg SC, inf […], PH20 6000 U) was 0.613 µg·h/mL. It also gave a Cmax [3] of 0.167 µg/mL, an AUC(0-inf) (0.082 mg/kg, Subj 63, ZA 0.0820 mg/kg SC, inf […], PH20 6000 U, read-out: AUC (0-inf)) of 0.662 µg·h/mL and a Tmax [3] of 0.5 h. It also gave an AUC(0-t) (0.0877 mg/kg, AUC (0-12 h), Subj 46, ZA 0.0877 mg/kg SC, inf 0.276 hr, PH20 12000 U) of 0.61 µg·h/mL, an AUC(0-t) (0.0877 mg/kg, AUC (0-24 h), Subj 46, ZA 0.0877 mg/kg SC, inf 0.276 hr, PH20 12000 U) of 0.656 µg·h/mL and an AUC(0-t) (0.0877 mg/kg, AUC (0-48 h), Subj 46, ZA 0.0877 mg/kg SC, inf 0.276 hr, PH20 12000 U) of 0.706 µg·h/mL. For the same molecule, the Cmax [4] was 0.213 µg/mL, the AUC(0-inf) (0.0877 mg/kg, Subj 46, ZA 0.0877 mg/kg SC, inf 0.276 hr, PH20 12000 U, read-out: AUC (0-inf)) was 0.747 µg·h/mL and the Tmax [4] was 0.78 h. It also gave an MRT (0.5 mg, ZA 0.5 mg, SC […] infusion, 100 mL, 3 mL/min, 24000 Units rHuPH20, extrapolated to ∞, individual subjects, read-out: SC MRT) of 3.19 h, an MRT (1 mg, ZA 1 mg, SC […] infusion, 100 mL, 3 mL/min, 24000 Units rHuPH20, extrapolated to ∞, individual subjects, read-out: SC MRT) of 6.93 h and an MRT (2 mg, ZA 2 mg, SC […] infusion, 100 mL, 3 mL/min, 24000 Units rHuPH20, extrapolated to ∞, individual subjects, read-out: SC MRT) of 5.72 h. The MRT (5 mg, ZA 5 mg, SC […] infusion, 100 mL, 3 mL/min, 24000 Units rHuPH20, extrapolated to ∞, individual subjects, read-out: SC MRT) was 10.9 h, the AUC(0-t) (AUC (0-12h), ZA 0.25 mg SC + 24000 U rHuPH20, individual subjects) was 0.0297 µg·h/mL and the AUC(0-t) (AUC (0-12h), ZA 0.25 mg SC + 24000 U rHuPH20, mean, n=3) was 0.0295 µg·h/mL. It also gave an AUC(0-t) (AUC (0-12h), ZA 0.25 mg SC + 24000 U rHuPH20, median, n=3) of 0.0295 µg·h/mL, an AUC(0-t) (AUC (0-12h), ZA 0.5 mg SC + 24000 U rHuPH20, individual subjects) of 0.0608 µg·h/mL and an AUC(0-t) (AUC (0-12h), ZA 0.5 mg SC + 24000 U rHuPH20, mean, n=3) of 0.0632 µg·h/mL. It also gave an AUC(0-t) (AUC (0-12h), ZA 0.5 mg SC + 24000 U rHuPH20, median, n=3) of 0.0624 µg·h/mL, an AUC(0-t) (AUC (0-12h), ZA 1 mg SC + 24000 U rHuPH20, individual subjects) of 0.103 µg·h/mL and an AUC(0-t) (AUC (0-12h), ZA 1 mg SC + 24000 U rHuPH20, mean, n=3) of 0.115 µg·h/mL. The AUC(0-t) (AUC (0-12h), ZA 1 mg SC + 24000 U rHuPH20, median, n=3) was 0.104 µg·h/mL, the AUC(0-t) (AUC (0-12h), ZA 2 mg SC + 24000 U rHuPH20, individual subjects) was 0.218 µg·h/mL and the AUC(0-t) (AUC (0-12h), ZA 2 mg SC + 24000 U rHuPH20, mean, n=3) was 0.223 µg·h/mL. The AUC(0-t) (AUC (0-12h), ZA 2 mg SC + 24000 U rHuPH20, median, n=3) was 0.218 µg·h/mL, the AUC(0-t) (AUC (0-12h), ZA 5 mg SC + 24000 U rHuPH20, individual subjects) was 0.499 µg·h/mL and the AUC(0-t) (AUC (0-12h), ZA 5 mg SC + 24000 U rHuPH20, mean, n=3) was 0.517 µg·h/mL. The AUC(0-t) (AUC (0-12h), ZA 5 mg SC + 24000 U rHuPH20, median, n=3) was 0.499 µg·h/mL, the CL/F [5] was 0.148 L/h/kg and the Cmax [5] was 0.00684 µg/mL. The AUC(0-inf) (ZA 0.25 mg SC + 24000 U rHuPH20, individual subjects, read-out: AUC (0-∞)) was 0.0308 µg·h/mL, the MRT (ZA 0.25 mg SC + 24000 U rHuPH20, individual subjects, read-out: MRT) was 2.93 h and the Tmax [5] was 1.06 h. It also gave a Vd/F (ZA 0.25 mg SC + 24000 U rHuPH20, individual subjects, read-out: Vss/F) of 0.435 L/kg, a Vd/F (ZA 0.25 mg SC + 24000 U rHuPH20, individual subjects, read-out: Vz/F) of 0.402 L/kg and a CL/F [6] of 0.12 L/h/kg. It also gave a Cmax [6] of 0.00675 µg/mL, an AUC(0-inf) (ZA 0.25 mg SC + 24000 U rHuPH20, mean, n=3, read-out: AUC (0-∞)) of 0.0309 µg·h/mL and an MRT (ZA 0.25 mg SC + 24000 U rHuPH20, mean, n=3, read-out: MRT) of 3.5 h. For the same molecule, the Tmax [6] was 1.31 h, the Vd/F (ZA 0.25 mg SC + 24000 U rHuPH20, mean, n=3, read-out: Vss/F) was 0.411 L/kg and the Vd/F (ZA 0.25 mg SC + 24000 U rHuPH20, mean, n=3, read-out: Vz/F) was 0.364 L/kg. It also gave a CL/F [7] of 0.108 L/h/kg, a Cmax [7] of 0.00684 µg/mL and an AUC(0-inf) (ZA 0.25 mg SC + 24000 U rHuPH20, median, n=3, read-out: AUC (0-∞)) of 0.0308 µg·h/mL. It also gave an MRT (ZA 0.25 mg SC + 24000 U rHuPH20, median, n=3, read-out: MRT) of 3.37 h, a Tmax [7] of 1.31 h and a Vd/F (ZA 0.25 mg SC + 24000 U rHuPH20, median, n=3, read-out: Vss/F) of 0.433 L/kg. It also gave a Vd/F (ZA 0.25 mg SC + 24000 U rHuPH20, median, n=3, read-out: Vz/F) of 0.363 L/kg, an MRT (ZA 0.25 mg, SC […] infusion, 100 mL, 3 mL/min, 24000 Units rHuPH20, extrapolated to ∞, individual subjects, read-out: SC MRT) of 3.37 h and a CL/F [8] of 0.141 L/h/kg. It also gave a Cmax [8] of 0.0153 µg/mL, an AUC(0-inf) (ZA 0.5 mg SC + 24000 U rHuPH20, individual subjects, read-out: AUC (0-∞)) of 0.0625 µg·h/mL and an MRT (ZA 0.5 mg SC + 24000 U rHuPH20, individual subjects, read-out: MRT) of 3.19 h. For the same molecule, the Tmax [8] was 0.81 h, the Vd/F (ZA 0.5 mg SC + 24000 U rHuPH20, individual subjects, read-out: Vss/F) was 0.451 L/kg and the Vd/F (ZA 0.5 mg SC + 24000 U rHuPH20, individual subjects, read-out: Vz/F) was 0.456 L/kg. For the same molecule, the CL/F [9] was 0.125 L/h/kg, the Cmax [9] was 0.0155 µg/mL and the AUC(0-inf) (ZA 0.5 mg SC + 24000 U rHuPH20, mean, n=3, read-out: AUC (0-∞)) was 0.065 µg·h/mL. The MRT (ZA 0.5 mg SC + 24000 U rHuPH20, mean, n=3, read-out: MRT) was 3.26 h, the Tmax [9] was 1.14 h and the Vd/F (ZA 0.5 mg SC + 24000 U rHuPH20, mean, n=3, read-out: Vss/F) was 0.406 L/kg. It also gave a Vd/F (ZA 0.5 mg SC + 24000 U rHuPH20, mean, n=3, read-out: Vz/F) of 0.407 L/kg, a CL/F [10] of 0.131 L/h/kg and a Cmax [10] of 0.0153 µg/mL. The AUC(0-inf) (ZA 0.5 mg SC + 24000 U rHuPH20, median, n=3, read-out: AUC (0-∞)) was 0.0644 µg·h/mL, the MRT (ZA 0.5 mg SC + 24000 U rHuPH20, median, n=3, read-out: MRT) was 3.24 h and the Tmax [10] was 1.31 h. It also gave a Vd/F (ZA 0.5 mg SC + 24000 U rHuPH20, median, n=3, read-out: Vss/F) of 0.423 L/kg, a Vd/F (ZA 0.5 mg SC + 24000 U rHuPH20, median, n=3, read-out: Vz/F) of 0.428 L/kg and a CL/F [11] of 0.143 L/h/kg. It also gave a Cmax [11] of 0.0301 µg/mL and an AUC(0-inf) (ZA 1 mg SC + 24000 U rHuPH20, individual subjects, read-out: AUC (0-∞)) of 0.122 µg·h/mL.
